Experimental data taken from paper PMC4534804, “Pharmacokinetics of a multicomponent herbal preparation in healthy Chinese and African volunteers” (Scientific Reports, 2015).

Legend:
[1] = Identification of prototype compounds and metabolites in human plasma after oral K-601 (UPLC-QTOF/MS, EIC peak height); assay type: in vivo
Method: (§1) Chromatographic separation was carried out at 25 °C on a Zorbax RRHD Eclipse Plus C18 column (2.1 × 50 mm, 1.8 μm). The mobile phase consisted of 0.1% formic acid solution (A) and ACN (B) using a gradient elution of 0–5% B at 0–6 min, 5–8% B at 6–15 min, 8–15% B at 15–20 min, 15–20% B at 20–30 min, 20–30% at 30–35 min, 30–35% at 35–45 min, 35–40% at 45–60 min. The flow rate was kept at 0.2 mL/min, and the sample volume injected was set at 5 μL. […] The parameters of operation were as follows: drying gas N2 flow rate, 10.0 L/min; temperature, 330 °C; nebulizer, 35 psig; capillary, 3000 V; skimmer, 60 V; OCT RFV, 250 V. Each sample was analyzed in both the positive and negative modes due to the selective sensitivities to different components of the formulation-providing better information for molecular formulae and structural identification. Mass spectra were recorded across the range m/z 100–1000 with accurate mass measurements.
A total of six healthy male volunteers, ages ranging from 22–47 years took part in this study. Three of whom are Africans and three Chinese. […] None was also on any medication.
Blood samples were withdrawn from subjects at the following time intervals, 0 hour (before taking medication and breakfast), 1, 2, 4, and 6 hours after taking the medication. These blood samples were taken by a qualified phlebotomist in the hospital. Each volunteer took 40 mL of same batch of the medication as a single dose. […] Details of subjects in the pharmacokinetic studies are provided (Table 5).
(§2) All blood samples taken at each time were immediately centrifuged at 13000 rpm for 10 min, and the plasma separated and stored at −80 °C until analysis. Plasma samples were thawed at 37 °C before solid-phase extraction (SPE) treatment for UPLC-QTOF/MS analysis. The sample treatment procedure is schematically presented in Supplementary Figure S3.

[2] = Pharmacokinetics of major prototype compounds in healthy Chinese and African volunteers after single oral K-601 (EIC peak area vs time); assay type: in vivo, human; details: single oral 40 mL K-601; for Tmax: male, human, plasma, po, 40 mL
Method: A total of six healthy male volunteers, ages ranging from 22–47 years took part in this study. Three of whom are Africans and three Chinese. All volunteers avoided the intake of alcohol/alcoholic beverages, coffee/beverages containing coffee for at least 12 hours prior to the study. None was also on any medication. All volunteers also fasted for 12 hours prior to the study and throughout the study period.
Blood samples were withdrawn from subjects at the following time intervals, 0 hour (before taking medication and breakfast), 1, 2, 4, and 6 hours after taking the medication. These blood samples were taken by a qualified phlebotomist in the hospital. Each volunteer took 40 mL of same batch of the medication as a single dose. This study was approved by the Ethics Committee of the First Affiliated Hospital of Nanjing Medical University (2013-SRFA-078) and conducted under the guidelines of the Helsinki Declaration and the International Conference on Harmonization-Good Clinical Practices (ICH-GCP). Details of subjects in the pharmacokinetic studies are provided (Table 5).
as §2
Pharmacokinetic analyses were done using the extracted ion chromatograms (EIC) of the most abundant compounds. The peak areas of derived from the EIC were plotted against time (h).

human intestinal flora = experiment: Biotransformation and metabolism of K-601 by human fecal flora (anaerobic incubation); assay type: in vitro ADME
Method: as §1

[3] = human plasma after single oral 40 mL K-601, prototype compounds
[4] = human plasma after administration of K-601, metabolites

Molecule: Cc1cc(O)c2c(c1)C(=O)c1cc(O)cc(O)c1C2=O [P12, Emodin]
- Abund. (peak height in the EIC) of prototype compound in plasma [1, 3]: 0.04 ×10^4

Molecule: O=C1c2cccc(O)c2C(=O)c2c(O)cc(O)cc21 [M10]
- Abund. (peak height in the EIC) of metabolite in plasma [1, 4]: 0.02 ×10^4
- Peak abundance (class) of metabolite in plasma [1, 4]: Low (<0.10 × 10^4 as trace constituent, thus low-level)

Molecule: COc1c(O[C@@H]2O[C@H](C(=O)O)[C@@H](O)[C@H](O)[C@H]2O)cc(O)c2c(=O)cc(-c3ccccc3)oc12 [P13, Wogonoside]
- Abund. (peak height in the EIC) of prototype compound in plasma [1, 3]: 0.42 ×10^4

Molecule: 4-O-caffeoylquinic acid [P8]
- Abund. (peak height in the EIC) of prototype compound in plasma ([1]; in vivo, po): 0.04 ×10^4

Molecule: Caffeoyl-CH2-O-quinic acid [P9]
- Abund. (peak height in the EIC) of prototype compound in plasma [1, 3]: 0.03 ×10^4

Molecule: COc1ccc2cc3[n+](cc2c1OC)CCc1cc2c(cc1-3)OCO2 [P5, Berberine]
- Tmax ([2]; African volunteers): 4 h
- Tmax ([2]; Chinese volunteers): 1 h
- AUC comparison African vs Chinese volunteers (in words) [2]: higher
- Abund. (peak height in the EIC) of prototype compound in plasma [1, 3]: 50.35 ×10^4
- Peak abundance (class) of prototype compound in plasma [1, 3]: High (> 1.00 × 10^4, defined as major constituent, thus high-level)

Molecule: O=C(O)c1cc(O)c(O)c(O)c1O [T1]
- Abund. (peak height in the EIC) of metabolite from human intestinal transformation (human intestinal flora): 0.05 ×10^4

Molecule: O=C(O)c1cc(O)c2c(c1)C(=O)c1cccc(O)c1C2=O [P14, Rhein]
- Abund. (peak height in the EIC) of prototype compound in plasma [1, 3]: 0.62 ×10^4

Molecule: COc1cc2c(cc1OC)[C@@H]1Cc3ccc(OC)c(OC)c3CN1CC2 [P2, Tetrahydropalmatine]
- Abund. (peak height in the EIC) of prototype compound in plasma [1, 3]: 0.03 ×10^4

Molecule: COc1ccc2c(c1O)-c1c(O)c(OC)cc3c1[C@H](C2)[N+](C)(C)CC3 [P1, Magnoflorine]
- AUC comparison African vs Chinese volunteers (in words) [2]: better in the Chinese volunteers
- Abund. (peak height in the EIC) of prototype compound in plasma ([1]; male, human, in vivo, po): 6.52 ×10^4

Molecule: C=C[C@H]1[C@H](O[C@@H]2O[C@H](CO)[C@@H](O)[C@H](O)[C@H]2O)OC=C(C(=O)O)[C@H]1CC(=O)O [P6, Secologanoside]
- Abund. (peak height in the EIC) of prototype compound in plasma ([1]; in vivo, po): 0.02 ×10^4

Molecule: Cc1cc(O)c2c(c1)C(=O)c1cc(C(=O)O)cc(O)c1C2=O [P15, 6-Methyl-rhein]
- Abund. (peak height in the EIC) of prototype compound in plasma ([1]; in vivo, po): 0.06 ×10^4

Molecule: COc1cc2c(cc1OC)-c1cc3ccc(OC)c(OC)c3c[n+]1CC2 [P4, Palmatine]
- Tmax ([2]; African volunteers): 4 h
- Tmax ([2]; Chinese volunteers): 1 h
- AUC comparison African vs Chinese volunteers (in words) [2]: higher
- Abund. (peak height in the EIC) of prototype compound in plasma [1, 3]: 12.63 ×10^4
- Peak abundance (class) of prototype compound in plasma [1, 3]: High (> 1.00 × 10^4, defined as major constituent, thus high-level)

Molecule: O=C(/C=C/c1ccc(O)c(O)c1)O[C@@H]1C[C@](O)(C(=O)O)C[C@@H](O)[C@H]1O [P7, Chlorogenic acid]
- Abund. (peak height in the EIC) of prototype compound in plasma [1, 3]: 0.03 ×10^4

Molecule: COc1cc2c(cc1O)CC[n+]1cc3c(OC)c(OC)ccc3cc1-2 [P3, Jatrorrhizine]
- Tmax ([2]; African volunteers): 4 h
- Tmax ([2]; Chinese volunteers): 1 h
- AUC comparison African vs Chinese volunteers (in words) [2]: higher
- Abund. (peak height in the EIC) of prototype compound in plasma ([1]; male, human, in vivo, po): 3.53 ×10^4

Molecule: O=c1c(O[C@@H]2O[C@H](CO)[C@H](O)[C@H](O)[C@H]2O)c(-c2ccc(O)c(O)c2)oc2cc(O)cc(O)c12 [P10, Hyperoside]
- Abund. (peak height in the EIC) of prototype compound in plasma [1, 3]: 0.05 ×10^4
